Read-outs that look alike come from different tables or passages of the source.
Target: T1, human α-synuclein (Homo sapiens, UniProt P37840)
T1 construct: the full-length gene for untagged human α-synuclein was inserted; made in house; host or cells: E. coli BL21(DE3), plasmid derived from pT7 or pET11a
Experiment: Cell-free Thioflavin T assay of α-synuclein aggregation (αSyn ThT Assay)
Format: biochemical
Conditions: αSyn 50 μM, compounds at 100 μM
Method in brief: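 Inhibition is reported as 100% minus background-corrected ThT signal relative to vehicle wells, taken at 36, 47, 48 or 72 h or the last read. Reactions held 50 μM recombinant α-synuclein, 20-100 μM compound, 20-40 μM ThT and 1% DMSO. Incubation was at 37° C., shaken, with a glass bead.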

[1] = mean % inhibition of αSyn aggregation relative to DMSO control, read-out: αSyn ThT Assay % Inhibition
[2] = class symbol, read-out: αSyn ThT Assay % Inhibition (activity range)

Row | Structure (SMILES) | inhibition at 100 µM [1] [%] | inhibition at 100 µM [2] [%]
1 | O=C(O)C1CN(CCCCO)S(=O)(=O)c2c(-c3cccc(C(F)(F)F)c3)c(Cc3cccc4ccccc34)c(NC3CCCC3)c(=O)n21 (centres unmarked) [Compound 121, 7-(cyclopentylamino)-2-(4-hydroxybutyl)-8-(naphthalen-1-ylmethyl)-6-oxo-9-(3-(trifluoromethyl)phenyl)-3,4-dihydro-2H,6H-pyrido[1,2-e][1,2,5]thiadiazine-4-carboxylic acid 1,1-dioxide] | 27 | 11 to 30
2 | CN(C)CCN1CC(C(=O)O)n2c(c(-c3cccc(C(F)(F)F)c3)c(Cc3cccc4ccccc34)cc2=O)S1(=O)=O (centres unmarked) [Compound 017, 2-(2-(dimethylamino)ethyl)-8-(naphthalen-1-ylmethyl)-6-oxo-9-(3-(trifluoromethyl)phenyl)-3,4-dihydro-2H,6H-pyrido[1,2-e][1,2,5]thiadiazine-4-carboxylic acid 1,1-dioxide] | 53 | 31 to 60
3 | CN1CC(C(=O)O)n2c(c(-c3cccc(C(F)(F)F)c3)c(Cc3cccc4ccccc34)c(C(N)=O)c2=O)S1(=O)=O (centres unmarked) [Compound 109, 7-carbamoyl-2-methyl-8-(naphthalen-1-ylmethyl)-6-oxo-9-(3-(trifluoromethyl)phenyl)-3,4-dihydro-2H,6H-pyrido[1,2-e][1,2,5]thiadiazine-4-carboxylic acid 1,1-dioxide] | 99 | > 60
4 | CN1CC(C(N)=O)n2c(c(-c3cccc(C(F)(F)F)c3)c(Cc3cccc4ccccc34)cc2=O)S1(=O)=O (centres unmarked) [Compound 030, 2-methyl-8-(naphthalen-1-ylmethyl)-6-oxo-9-(3-(trifluoromethyl)phenyl)-3,4-dihydro-2H,6H-pyrido[1,2-e][1,2,5]thiadiazine-4-carboxamide 1,1-dioxide] | 4 | -10 to 10
5 | CCN1CC(C(=O)O)n2c(c(-c3cccc(C(F)(F)F)c3)c(Cc3cccc4ccccc34)cc2=O)S1(=O)=O (single isomer, unassigned) [Compound 015a, 2-ethyl-8-(naphthalen-1-ylmethyl)-6-oxo-9-(3-(trifluoromethyl)phenyl)-3,4-dihydro-2H,6H-pyrido[1,2-e][1,2,5]thiadiazine-4-carboxylic acid 1,1-dioxide] | 62 | > 60
6 | C=CCCN1CC(C(=O)O)n2c(c(-c3cccc(C(F)(F)F)c3)c(Cc3cccc4ccccc34)cc2=O)S1(=O)=O (centres unmarked) [Compound 024, 2-(but-3-en-1-yl)-8-(naphthalen-1-ylmethyl)-6-oxo-9-(3-(trifluoromethyl)phenyl)-3,4-dihydro-2H,6H-pyrido[1,2-e][1,2,5]thiadiazine-4-carboxylic acid 1,1-dioxide] | 69 | > 60
7 | O=C(O)C1CN(CCCO)S(=O)(=O)c2c(-c3cccc(C(F)(F)F)c3)c(Cc3cccc4ccccc34)c(NC3CCCC3)c(=O)n21 (centres unmarked) [Compound 120, 7-(cyclopentylamino)-2-(3-hydroxypropyl)-8-(naphthalen-1-ylmethyl)-6-oxo-9-(3-(trifluoromethyl)phenyl)-3,4-dihydro-2H,6H-pyrido[1,2-e][1,2,5]thiadiazine-4-carboxylic acid 1,1-dioxide] | 40 | 31 to 60
8 | O=C(O)C1CSc2c(-c3cccc(C(F)(F)F)c3)c(Cc3cccc4ccccc34)cc(=O)n21 (racemic) [Compound 011, 7-(naphthalen-1-ylmethyl)-5-oxo-8-(3-(trifluoromethyl)phenyl)-2,3-dihydro-5H-thiazolo[3,2-a]pyridine-3-carboxylic acid] | 56 | 31 to 60
9 | O=C(O)[C@H]1CS(=O)(=O)c2c(-c3cccc(C(F)(F)F)c3)c(Cc3cccc4ccccc34)cc(=O)n21 (single isomer, unassigned) [Compound 010b, 7-(naphthalen-1-ylmethyl)-5-oxo-8-(3-(trifluoromethyl)phenyl)-2,3-dihydro-5H-thiazolo[3,2-a]pyridine-3-carboxylic acid 1,1-dioxide] | 35 | 31 to 60
10 | CCc1c(Cc2cccc3ccccc23)c(-c2cccc(C(F)(F)F)c2)c2n(c1=O)C(C(=O)O)CN(C1CCCCC1)S2(=O)=O (centres unmarked) [Compound 116, 2-cyclohexyl-7-ethyl-8-(naphthalen-1-ylmethyl)-6-oxo-9-(3-(trifluoromethyl)phenyl)-3,4-dihydro-2H,6H-pyrido[1,2-e][1,2,5]thiadiazine-4-carboxylic acid 1,1-dioxide] | 47 | 31 to 60
11 | Nc1c(Cc2cccc3ccccc23)c(-c2cccc(C(F)(F)F)c2)c2n(c1=O)C(C(=O)O)CS2(=O)=O (centres unmarked) [Compound 023, 6-amino-7-(naphthalen-1-ylmethyl)-5-oxo-8-(3-(trifluoromethyl)phenyl)-2,3-dihydro-5H-thiazolo[3,2-a]pyridine-3-carboxylic acid 1,1-dioxide] | 21 | 11 to 30
12 | O=C(O)CN1CC(C(=O)O)n2c(c(-c3cccc(C(F)(F)F)c3)c(Cc3cccc4ccccc34)cc2=O)S1(=O)=O (centres unmarked) [Compound 018, 2-(carboxymethyl)-8-(naphthalen-1-ylmethyl)-6-oxo-9-(3-(trifluoromethyl)phenyl)-3,4-dihydro-2H,6H-pyrido[1,2-e][1,2,5]thiadiazine-4-carboxylic acid 1,1-dioxide] | 22 | 11 to 30
13 | CC(C)N1CC(C(=O)O)n2c(c(-c3cccc(C(F)(F)F)c3)c(Cc3cccc4ccccc34)c(NC3CCCC3)c2=O)S1(=O)=O (centres unmarked) [Compound 123, 7-(cyclopentylamino)-2-isopropyl-8-(naphthalen-1-ylmethyl)-6-oxo-9-(3-(trifluoromethyl)phenyl)-3,4-dihydro-2H,6H-pyrido[1,2-e][1,2,5]thiadiazine-4-carboxylic acid 1,1-dioxide] | 76 | > 60
14 | CCCN1CC(C(=O)O)n2c(c(-c3cccc(C(F)(F)F)c3)c(Cc3cccc4ccccc34)c(NC3CCOCC3)c2=O)S1(=O)=O (centres unmarked) [Compound 127, 8-(naphthalen-1-ylmethyl)-6-oxo-2-propyl-7-((tetrahydro-2H-pyran-4-yl)amino)-9-(3-(trifluoromethyl)phenyl)-3,4-dihydro-2H,6H-pyrido[1,2-e][1,2,5] thiadiazine-4-carboxylic acid 1,1-dioxide] | 67 | > 60
15 | O=C(O)C1CSc2c(-c3cccc(C(F)(F)F)c3)c(Cc3cccc4ccccc34)nc(=O)n21 (centres unmarked) [Compound 022, 7-(naphthalen-1-ylmethyl)-5-oxo-8-(3-(trifluoromethyl)phenyl)-2,3-dihydro-5H-thiazolo[3,2-c]pyrimidine-3-carboxylic acid] | 49 | 31 to 60
16 | CN(C)Cc1c(Cc2cccc3ccccc23)c(-c2cccc(C(F)(F)F)c2)c2n(c1=O)C(C(=O)O)CS2 (centres unmarked) [Compound 075, 6-((dimethylamino)methyl)-7-(naphthalen-1-ylmethyl)-5-oxo-8-(3-(trifluoromethyl)phenyl)-2,3-dihydro-5H-thiazolo[3,2-a]pyridine-3-carboxylic acid] | 2 | -10 to 10
17 | CN1CC(C(=O)O)n2c(c(-c3cccc(C(F)(F)F)c3)c(Cc3cccc4ccccc34)c(N)c2=O)S1(=O)=O (centres unmarked) [Compound 074, 7-amino-2-methyl-8-(naphthalen-1-ylmethyl)-6-oxo-9-(3-(trifluoromethyl)phenyl)-3,4-dihydro-2H,6H-pyrido[1,2-e][1,2,5]thiadiazine-4-carboxylic acid 1,1-dioxide] | 38 | 31 to 60
18 | CCCCCN1CC(C(=O)O)n2c(c(-c3cccc(C(F)(F)F)c3)c(Cc3cccc4ccccc34)cc2=O)S1(=O)=O (racemic) [Compound 025, 8-(naphthalen-1-ylmethyl)-6-oxo-2-pentyl-9-(3-(trifluoromethyl)phenyl)-3,4-dihydro-2H,6H-pyrido[1,2-e][1,2,5]thiadiazine-4-carboxylic acid 1,1-dioxide] | 59 | 31 to 60
19 | CCCN1CC(C(=O)O)n2c(c(-c3cccc(C(F)(F)F)c3)c(Cc3cccc4ccccc34)c(NC3CCCC3)c2=O)S1(=O)=O (centres unmarked) [Compound 126, 7-(cyclopentylamino)-8-(naphthalen-1-ylmethyl)-6-oxo-2-propyl-9-(3-(trifluoromethyl)phenyl)-3,4-dihydro-2H,6H-pyrido[1,2-e][1,2,5]thiadiazine-4-carboxylic acid 1,1-dioxide] | 32 | 31 to 60
20 | O=C(O)[C@@H]1CS(=O)(=O)c2c(-c3cccc(C(F)(F)F)c3)c(Cc3cccc4ccccc34)cc(=O)n21 (single isomer, unassigned) [Compound 010a, 7-(naphthalen-1-ylmethyl)-5-oxo-8-(3-(trifluoromethyl)phenyl)-2,3-dihydro-5H-thiazolo[3,2-a]pyridine-3-carboxylic acid 1,1-dioxide] | 41 | 31 to 60
21 | NC(=O)CN1CC(C(=O)O)n2c(c(-c3cccc(C(F)(F)F)c3)c(Cc3cccc4ccccc34)cc2=O)S1(=O)=O (centres unmarked) [Compound 028, 2-(2-amino-2-oxoethyl)-8-(naphthalen-1-ylmethyl)-6-oxo-9-(3-(trifluoromethyl)phenyl)-3,4-dihydro-2H,6H-pyrido[1,2-e][1,2,5]thiadiazine-4-carboxylic acid 1,1-dioxide] | 33 | 31 to 60
22 | COc1ccc(CN2C[C@@H](C(=O)O)n3c(c(-c4cccc(C(F)(F)F)c4)c(Cc4cccc5ccccc45)cc3=O)S2(=O)=O)cc1 (single isomer, unassigned) [Compound 026a] | 51 | 31 to 60

Reference: patent US20230131899A1, “INHIBITORS OF MICROBIALLY INDUCED AMYLOID” (Axial Therapeutics, Inc., priority 2020, published 2023)
